The source of these data is ChEMBL document CHEMBL5465560, “Selectivity Literature for EUbOPEN Chemogenomic Library” (2024).

For assay [1], the target named is Insulin receptor-related protein (Homo sapiens) (UniProt P14616). Nature of the assay: Selectivity interaction (Kinase panel (Z-LYTE Assay)) EUB0001632a INSRR. The note with it: at 10 µM.
Assay [2] deals with Vascular endothelial growth factor receptor 2 (Homo sapiens, UniProt P35968). Nature of the assay: Selectivity interaction (CEREP Wide Ligand Profile screen (panel of receptors, ion channels, and transporters)) EUB0001542aTs KDR.
For assay [3], the target named is T1, Hormonally up-regulated neu tumor-associated kinase (Homo sapiens) (UniProt P57058).
T1 sequence (whole entry): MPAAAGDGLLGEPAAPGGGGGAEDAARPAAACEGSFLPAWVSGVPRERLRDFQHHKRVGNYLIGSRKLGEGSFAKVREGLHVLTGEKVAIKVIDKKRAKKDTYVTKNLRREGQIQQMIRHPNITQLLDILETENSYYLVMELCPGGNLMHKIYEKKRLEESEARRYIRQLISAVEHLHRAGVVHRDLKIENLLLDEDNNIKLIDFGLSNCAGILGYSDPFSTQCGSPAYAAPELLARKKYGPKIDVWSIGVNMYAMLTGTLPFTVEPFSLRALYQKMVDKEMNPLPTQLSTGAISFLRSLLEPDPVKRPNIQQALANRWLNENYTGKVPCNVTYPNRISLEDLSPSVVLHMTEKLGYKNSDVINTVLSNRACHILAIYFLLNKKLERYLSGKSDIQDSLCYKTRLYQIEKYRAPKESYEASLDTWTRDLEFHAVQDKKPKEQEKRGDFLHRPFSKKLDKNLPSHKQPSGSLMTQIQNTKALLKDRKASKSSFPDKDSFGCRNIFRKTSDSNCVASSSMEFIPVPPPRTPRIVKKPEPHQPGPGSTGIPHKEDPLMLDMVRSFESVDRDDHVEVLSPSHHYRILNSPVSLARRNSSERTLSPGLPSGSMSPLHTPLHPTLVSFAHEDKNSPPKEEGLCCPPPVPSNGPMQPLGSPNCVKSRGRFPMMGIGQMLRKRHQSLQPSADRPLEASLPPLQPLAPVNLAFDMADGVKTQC
Nature of the assay: Selectivity interaction (KinomeScan (DiscoverX)) EUB0000607a HUNK. The note with it: at 10 µM.

Assay [4] has as its target Rho-associated protein kinase 1 (Homo sapiens) (UniProt Q13464). Nature of the assay: Selectivity interaction (SelectScreen profiling (Invitrogen)) EUB0000607a ROCK1. The note with it: at 2 µM.
Assay [5] concerns the target Phosphatidylinositol 4-phosphate 3-kinase C2 domain-containing subunit beta (Homo sapiens) (UniProt O00750). The note with it: at 10 µM.
For assay [6], the target named is T2, cGMP-dependent protein kinase 2 (Homo sapiens) (UniProt Q13237).
T2 sequence (whole entry): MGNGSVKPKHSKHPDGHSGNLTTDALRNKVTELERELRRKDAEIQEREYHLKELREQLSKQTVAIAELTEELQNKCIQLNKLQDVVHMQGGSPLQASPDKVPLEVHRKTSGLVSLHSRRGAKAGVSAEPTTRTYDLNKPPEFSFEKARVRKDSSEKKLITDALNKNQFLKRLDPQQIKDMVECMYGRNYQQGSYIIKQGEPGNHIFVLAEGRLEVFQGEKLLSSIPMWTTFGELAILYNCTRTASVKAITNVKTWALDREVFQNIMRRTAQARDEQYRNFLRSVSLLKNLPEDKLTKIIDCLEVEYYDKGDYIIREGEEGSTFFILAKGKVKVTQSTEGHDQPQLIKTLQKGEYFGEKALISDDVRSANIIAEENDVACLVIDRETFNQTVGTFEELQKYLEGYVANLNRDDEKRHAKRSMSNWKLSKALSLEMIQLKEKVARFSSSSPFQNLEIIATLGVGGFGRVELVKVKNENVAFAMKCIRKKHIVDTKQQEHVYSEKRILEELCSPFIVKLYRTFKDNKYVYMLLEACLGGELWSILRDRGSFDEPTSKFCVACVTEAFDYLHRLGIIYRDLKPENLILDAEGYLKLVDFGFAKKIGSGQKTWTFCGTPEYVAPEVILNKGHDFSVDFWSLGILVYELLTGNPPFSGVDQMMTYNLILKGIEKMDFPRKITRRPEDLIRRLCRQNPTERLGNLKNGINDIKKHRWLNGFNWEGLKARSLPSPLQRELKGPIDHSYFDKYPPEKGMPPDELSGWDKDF
Nature of the assay: Selectivity interaction (KinomeScan (DiscoverX)) EUB0000229b PRKG2. The note with it: at 10 µM.

For assay [7], the target named is Serine/threonine-protein kinase NIM1 (Homo sapiens, UniProt Q8IY84). Nature of the assay: Selectivity interaction (KinomeScan (DiscoverX)) EUB0001079a NIM1K. The note with it: at 1 µM.
Serine/threonine-protein kinase NIM1, sequence (Q8IY84 whole entry): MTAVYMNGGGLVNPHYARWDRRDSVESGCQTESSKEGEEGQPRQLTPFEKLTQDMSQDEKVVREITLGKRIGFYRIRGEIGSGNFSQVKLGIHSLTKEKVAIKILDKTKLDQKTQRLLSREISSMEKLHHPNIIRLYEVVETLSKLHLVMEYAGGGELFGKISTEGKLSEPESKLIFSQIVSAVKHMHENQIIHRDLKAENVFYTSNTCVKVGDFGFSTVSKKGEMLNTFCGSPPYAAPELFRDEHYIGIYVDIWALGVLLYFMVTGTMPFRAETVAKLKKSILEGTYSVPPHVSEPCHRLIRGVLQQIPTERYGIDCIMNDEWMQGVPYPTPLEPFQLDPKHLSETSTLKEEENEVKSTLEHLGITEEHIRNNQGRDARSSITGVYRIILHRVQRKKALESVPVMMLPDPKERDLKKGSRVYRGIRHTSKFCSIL
In assay [8] the target is Calcium/calmodulin-dependent protein kinase type 1G (Homo sapiens) (UniProt Q96NX5). Nature of the assay: Selectivity interaction (KinomeScan (DiscoverX)) EUB0001619a CAMK1G. The note with it: at 1 µM.
Calcium/calmodulin-dependent protein kinase type 1G (Homo sapiens), sequence (Q96NX5 whole entry): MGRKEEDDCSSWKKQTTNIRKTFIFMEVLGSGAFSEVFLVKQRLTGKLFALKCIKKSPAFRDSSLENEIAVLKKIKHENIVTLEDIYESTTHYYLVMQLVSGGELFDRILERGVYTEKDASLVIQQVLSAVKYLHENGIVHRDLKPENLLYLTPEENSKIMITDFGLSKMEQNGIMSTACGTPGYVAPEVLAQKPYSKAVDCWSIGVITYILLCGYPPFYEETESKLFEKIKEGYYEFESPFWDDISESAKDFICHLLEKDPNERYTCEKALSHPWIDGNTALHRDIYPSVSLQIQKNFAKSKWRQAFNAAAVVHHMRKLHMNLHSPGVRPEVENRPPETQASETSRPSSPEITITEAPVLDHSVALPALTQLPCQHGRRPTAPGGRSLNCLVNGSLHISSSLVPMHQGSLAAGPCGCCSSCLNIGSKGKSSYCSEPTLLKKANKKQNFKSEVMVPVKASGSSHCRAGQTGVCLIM
In assay [9] the target is Tyrosine-protein kinase JAK1 (Homo sapiens, UniProt P23458). Nature of the assay: Selectivity interaction (KinomeScan (DiscoverX)) EUB0000695a JAK1. The note with it: at 100 nM.
Tyrosine-protein kinase JAK1, sequence (P23458 whole entry, the tested form may be a part): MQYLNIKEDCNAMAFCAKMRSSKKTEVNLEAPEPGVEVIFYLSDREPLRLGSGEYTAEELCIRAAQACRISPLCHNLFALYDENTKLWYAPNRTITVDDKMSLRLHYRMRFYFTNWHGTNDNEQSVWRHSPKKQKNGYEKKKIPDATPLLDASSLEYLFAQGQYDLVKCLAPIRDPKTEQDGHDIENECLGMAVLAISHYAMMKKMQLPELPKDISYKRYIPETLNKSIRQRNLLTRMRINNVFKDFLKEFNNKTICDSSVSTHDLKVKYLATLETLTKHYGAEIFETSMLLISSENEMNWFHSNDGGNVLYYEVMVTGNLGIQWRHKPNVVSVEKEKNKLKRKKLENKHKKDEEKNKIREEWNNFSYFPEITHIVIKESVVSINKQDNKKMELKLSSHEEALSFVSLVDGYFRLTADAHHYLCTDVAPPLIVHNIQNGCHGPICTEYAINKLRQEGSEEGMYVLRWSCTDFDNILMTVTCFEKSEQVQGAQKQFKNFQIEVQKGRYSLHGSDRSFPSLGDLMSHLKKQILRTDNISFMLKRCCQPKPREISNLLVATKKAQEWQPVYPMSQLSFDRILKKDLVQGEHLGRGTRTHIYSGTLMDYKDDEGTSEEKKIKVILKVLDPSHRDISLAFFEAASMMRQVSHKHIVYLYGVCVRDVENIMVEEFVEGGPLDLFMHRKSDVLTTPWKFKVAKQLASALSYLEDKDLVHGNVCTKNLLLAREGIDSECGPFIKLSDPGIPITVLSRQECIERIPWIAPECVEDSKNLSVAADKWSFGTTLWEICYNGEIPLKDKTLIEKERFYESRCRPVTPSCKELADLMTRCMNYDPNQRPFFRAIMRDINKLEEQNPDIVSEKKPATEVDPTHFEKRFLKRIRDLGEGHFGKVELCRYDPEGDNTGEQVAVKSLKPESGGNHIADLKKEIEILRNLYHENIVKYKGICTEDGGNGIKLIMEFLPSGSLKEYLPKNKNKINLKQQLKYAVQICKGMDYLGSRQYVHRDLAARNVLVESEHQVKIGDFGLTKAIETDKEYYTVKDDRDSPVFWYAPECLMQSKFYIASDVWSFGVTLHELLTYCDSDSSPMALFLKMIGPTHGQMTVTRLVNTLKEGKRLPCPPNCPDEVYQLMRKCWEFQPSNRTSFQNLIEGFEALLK
The target of assay [10] is TP53-binding protein 1 (Homo sapiens) (UniProt Q12888). Nature of the assay: Selectivity interaction (PWWP, WD40, and Tudor domain panel (DSLS measurements, literature)) EUB0000270b TP53BP1.
TP53-binding protein 1 (Homo sapiens), sequence (Q12888 whole entry, the tested form may be a part): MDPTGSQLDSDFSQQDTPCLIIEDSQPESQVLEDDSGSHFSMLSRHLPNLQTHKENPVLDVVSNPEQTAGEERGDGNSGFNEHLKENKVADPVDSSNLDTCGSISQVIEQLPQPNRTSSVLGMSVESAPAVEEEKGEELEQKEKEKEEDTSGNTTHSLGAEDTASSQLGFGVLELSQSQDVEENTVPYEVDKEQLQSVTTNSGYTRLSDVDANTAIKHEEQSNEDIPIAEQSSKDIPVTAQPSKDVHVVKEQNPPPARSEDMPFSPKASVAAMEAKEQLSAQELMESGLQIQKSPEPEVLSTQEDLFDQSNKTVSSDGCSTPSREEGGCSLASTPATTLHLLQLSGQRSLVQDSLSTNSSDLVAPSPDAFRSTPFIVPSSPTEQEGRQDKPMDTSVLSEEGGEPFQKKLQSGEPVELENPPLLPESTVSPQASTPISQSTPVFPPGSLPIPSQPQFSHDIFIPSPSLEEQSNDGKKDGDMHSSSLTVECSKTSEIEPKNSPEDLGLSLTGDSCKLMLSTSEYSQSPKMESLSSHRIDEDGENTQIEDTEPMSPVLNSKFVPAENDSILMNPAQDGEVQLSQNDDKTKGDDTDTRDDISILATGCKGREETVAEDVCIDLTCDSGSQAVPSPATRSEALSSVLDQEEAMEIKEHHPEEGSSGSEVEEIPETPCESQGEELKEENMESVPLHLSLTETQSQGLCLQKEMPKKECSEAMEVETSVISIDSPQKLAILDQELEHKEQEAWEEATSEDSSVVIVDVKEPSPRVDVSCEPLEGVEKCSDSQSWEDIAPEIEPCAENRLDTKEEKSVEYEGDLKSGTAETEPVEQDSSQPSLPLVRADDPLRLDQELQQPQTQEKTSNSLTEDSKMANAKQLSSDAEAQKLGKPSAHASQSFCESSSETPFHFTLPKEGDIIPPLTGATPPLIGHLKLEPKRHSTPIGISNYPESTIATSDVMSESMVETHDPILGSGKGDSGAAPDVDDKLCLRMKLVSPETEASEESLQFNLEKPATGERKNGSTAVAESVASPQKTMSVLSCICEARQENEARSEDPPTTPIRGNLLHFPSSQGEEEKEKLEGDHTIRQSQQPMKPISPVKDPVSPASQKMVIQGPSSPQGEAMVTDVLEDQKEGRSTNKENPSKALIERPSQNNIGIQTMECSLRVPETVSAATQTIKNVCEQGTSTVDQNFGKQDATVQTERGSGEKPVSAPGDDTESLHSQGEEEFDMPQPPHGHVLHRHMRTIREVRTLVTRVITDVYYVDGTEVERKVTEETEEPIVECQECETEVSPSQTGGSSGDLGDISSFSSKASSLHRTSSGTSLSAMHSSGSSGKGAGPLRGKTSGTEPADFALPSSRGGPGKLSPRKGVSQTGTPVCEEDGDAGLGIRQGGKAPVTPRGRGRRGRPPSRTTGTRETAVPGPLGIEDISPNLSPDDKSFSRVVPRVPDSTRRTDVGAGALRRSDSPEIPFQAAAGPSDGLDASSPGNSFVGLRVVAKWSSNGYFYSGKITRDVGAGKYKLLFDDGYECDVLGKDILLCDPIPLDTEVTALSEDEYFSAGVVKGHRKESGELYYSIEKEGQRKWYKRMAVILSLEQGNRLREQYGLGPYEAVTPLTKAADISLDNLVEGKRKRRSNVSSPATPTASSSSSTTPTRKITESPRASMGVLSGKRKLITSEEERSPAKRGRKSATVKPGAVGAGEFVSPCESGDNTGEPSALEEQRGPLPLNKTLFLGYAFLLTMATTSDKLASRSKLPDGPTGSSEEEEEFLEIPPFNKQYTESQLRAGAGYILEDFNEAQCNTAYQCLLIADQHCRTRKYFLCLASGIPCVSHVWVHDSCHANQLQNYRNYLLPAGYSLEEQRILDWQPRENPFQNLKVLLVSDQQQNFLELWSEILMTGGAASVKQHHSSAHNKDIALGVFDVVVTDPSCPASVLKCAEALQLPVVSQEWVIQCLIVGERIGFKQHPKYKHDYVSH
Assay [11] has as its target Serine/threonine-protein kinase pim-3 (Homo sapiens) (UniProt Q86V86). Nature of the assay: Selectivity interaction (KinomeScan (DiscoverX)) EUB0000092b PIM3. The note with it: at 10 µM.
The target in assay [12] is T3, Serine/threonine-protein kinase DCLK1 (Homo sapiens) (UniProt O15075).
T3 sequence (whole entry): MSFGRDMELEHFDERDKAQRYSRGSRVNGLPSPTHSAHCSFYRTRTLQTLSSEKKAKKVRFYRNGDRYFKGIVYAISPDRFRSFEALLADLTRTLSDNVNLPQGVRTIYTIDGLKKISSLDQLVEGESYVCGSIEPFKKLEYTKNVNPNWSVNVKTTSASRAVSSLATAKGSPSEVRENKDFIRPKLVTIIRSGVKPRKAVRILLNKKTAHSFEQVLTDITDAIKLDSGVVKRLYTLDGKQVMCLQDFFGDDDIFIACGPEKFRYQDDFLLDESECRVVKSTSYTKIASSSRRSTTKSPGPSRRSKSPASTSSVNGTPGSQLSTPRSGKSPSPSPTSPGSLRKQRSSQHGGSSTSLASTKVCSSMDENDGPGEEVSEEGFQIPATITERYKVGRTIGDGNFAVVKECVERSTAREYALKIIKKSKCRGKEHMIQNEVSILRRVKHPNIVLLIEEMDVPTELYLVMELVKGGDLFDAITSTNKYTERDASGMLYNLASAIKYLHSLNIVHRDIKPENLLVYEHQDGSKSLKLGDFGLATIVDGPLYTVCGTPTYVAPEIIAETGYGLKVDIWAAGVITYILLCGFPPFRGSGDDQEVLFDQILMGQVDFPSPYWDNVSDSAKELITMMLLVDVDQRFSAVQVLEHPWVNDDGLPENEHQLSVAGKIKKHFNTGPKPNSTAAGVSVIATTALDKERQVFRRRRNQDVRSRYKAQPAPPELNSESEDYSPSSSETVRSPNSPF
Nature of the assay: Selectivity interaction (KinomeScan (DiscoverX)) EUB0000595a DCLK1. The note with it: at 10 µM.

For the compound `Cn1cc(-n2cnc3c(NCc4nc5cc(Cl)c(Cl)cc5[nH]4)nc(N4CCOCC4)nc32)cn1`, the % of control in assay [1] turned out to be 0.348%.
For `Cn1cc(Nc2nccc(N3CC4CCC(C3)N4C(=O)[C@@H]3CC3(F)F)n2)cn1`, the IC50 in [2] turned out to be 1600 nM.
For the compound `CNC(=O)Nc1ccc(-c2nc(N3CC4CCC(C3)O4)c3cnn(C4CCC5(CC4)OCCO5)c3n2)cc1`, in assay [3], the % of control turned out to be 100%. In assay [4], the % of inhibition was -8%.
On to `Cc1cc([C@@H](C)Nc2ccccc2C(=O)O)c2nc(N3CCOCC3)cc(=O)n2c1` [AZD-6482], for which the % of control in assay [5] came out at 0.4%.
`COc1cc(N(C)c2ccnc3ccc(C(F)(F)F)cc23)cc(OC)c1OC` yielded a % binding in assay [6] of 78%.
As to `Nc1cnc(N2CCc3cc(S(=O)(=O)Nc4c(F)cc(Cl)cc4F)cc(N4CCCC4=O)c32)nc1` [TP-020n], the % of control in [7] was found to be 100%.
With `N#Cc1cccc(-c2c[nH]c3ncnc(N4CCOCC4)c23)c1`, in assay [8], the % of control is 100%.
In the case of `Cc1cc(F)c(C(=O)Nc2cccc(-c3nncn3C(C)C)n2)cc1-n1cnc(C2CC2)c1`, the % of control in assay [9] was 93%.
In assay [10], `Cc1cc(CN)cc(C)c1-c1ncn(C)c1-c1cncn1C` registered a dTagg of 0.1 K.
`CCC(=O)N1CCN(c2ccc(-n3c(=O)ccc4cnc5ccc(-c6cnc7ccccc7c6)cc5c43)cc2C(F)(F)F)CC1` yielded a % of control in assay [11] of 96%.
With `COCC(=O)NC/C=C/c1ccc2ncnc(Nc3ccc(Oc4ccc(C)nc4)c(C)c3)c2c1` [CP-724714], the % of control in [12] is 100%.
